# Data from patent US20130203805A1, “Methods for treating anemia using inhibitors of hypoxia-inducible factor (HIF) hydroxylase” (FIBROGEN, INC., priority 2001, published 2013).
# Tests used:
# [1] = system: erythropoietin gene expression; assay: Erythropoietin gene expression in liver and kidney by quantitative PCR (Example 2, Experiment I); type: in vivo, Swiss Webster male mice; settings: mice, 200 mg/kg/day oral gavage twice daily 2.5 days (5 doses), 4 h after final dose, FIG. 2A
# Experimental: Twelve Swiss Webster male mice (30-32 g) were obtained from Simonsen, Inc. (Gilroy Calif.), and treated by oral gavage two times per day for 2.5 days (5 doses) with a 4 ml/kg volume of either 0.5% carboxymethyl cellulose (CMC; Sigma-Aldrich, St. Louis Mo.) (0 mg/kg/day) or 2.5% Compound C (25 mg/ml in 0.5% CMC) (200 mg/kg/day). Four hours after the final dose, animals were anesthetized with isoflurane and two blood samples were collected from the abdominal vein. One blood sample was collected into a MICROTAINER serum separator tube (Becton-Dickinson, Franklin Lakes N.J.), and incubated at room temperature for 30 minutes, centrifuged at 8,000 rpm at 4° C. for 10 minutes. The serum fraction was then processed and analyzed for erythropoietin (EPO) expression using a QUANTIKINE immunoassay (R&D Systems) according to the manufacturer's instructions. […] Hematocrit was measured by drawing EDTA-blood into a 75 mm×1.1-12 mm I.D. capillary tube (Chase Scientific Glass, Inc., Rockwood Tenn.) to approximately ¾ length. […] Hematocrit was read against a reader card. […]
# RNA isolation was carried out using the following protocol. […] The RNA was eluted into 80 μL of water and quantitated with RIBOGREEN reagent (Molecular Probes, Eugene Oreg.). […] The absorbance at 260 and 280 nm was measured to determine RNA purity and concentration. […]
# The relative level of 18S ribosomal RNA gene expression was measured as a control. […]
# [2] = type: in vivo, Sprague Dawley male rats
# Experimental: The ability of a compound of the invention to treat anemia associated with post-ischemic acute renal failure was assayed using a procedure described by Vaziri et al. (1994, Am J Physiol 266(3 Pt 2):[…]-6.) Fifteen Sprague Dawley male rats (280-300 g) were obtained from Charles River Laboratories. On day 0, rats were treated by intraperitoneal injection with a single dose of saline (control; n=3) at 8 ml/kg, or cisplatin (CP; Bedford Laboratories, Bedford Ohio) at either 7 mg/kg (7 ml/kg; n=6) or 10 mg/kg (10 ml/kg; n=6). Blood samples (0.2 ml) were collected on days 5, 9, and 16 as follows. […] Blood samples were processed for hematocrit as described above to determine the degree of anemia produced in each animal. […] Blood samples (0.5 ml) were collected as described above immediately prior to treatment and 4 days after treatment initiation. Blood samples were analyzed for CBC and reticulocyte counts as described above. On day 9 after initiation of oral treatment, a blood sample (0.1 ml) was collected and processed for hematocrit as described above.
structure (smiles),measurement,setting,value
"O=C(O)CNC(=O)c1nc(Cl)c2ccccc2c1O [Compound C, [(1-chloro-4-hydroxy-isoquinoline-3-carbonyl)-amino]-acetic acid]","increase over background in EPO transcript level, kidney",[1]; relative to untreated kidney,approximately 580 fold
same,"increase over background in EPO transcript level, liver",[1]; relative to untreated liver,approximately 32 fold
same,hematocrit levels versus normal control,"[2]; rats initially exposed to 7 mg/kg CP, 2 ml/kg of 2.5% compound C oral once daily 5 days, day 9, FIG. 5A",at or above normal control values
same,number of circulating reticulocytes,"[2]; rats, CP-treated, 2 ml/kg of 2.5% compound C oral once daily 5 days, FIG. 5B",also increased
same,hematocrit versus non-treated counterparts,"[2]; rats, CP-treated, 2 ml/kg of 2.5% compound C oral once daily 5 days, day 9 post-treatment, FIG. 5A",significantly higher
same,hematocrit in CP-treated animals,"[2]; rats, 2 ml/kg of 2.5% compound C oral once daily 5 days from day 19, 4 days after initiating treatment, FIG. 5A",increased
